Results taken from PubChem BioAssay (NCI).
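All cell lines were grown in 96-well plates and treated with compound for 48 hours. The concentration for full growth arrest is given as TGI.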

What was measured:
Assay in all cases: NCI-60 cell line screen, 48 h
K-562 leukemia = test system: K-562 leukemia
A549 NSCLC = test system: A549 NSCLC
RPMI-8226 leukemia = test system: RPMI-8226 leukemia
SW-620 colon = test system: SW-620 colon
HCT-15 colon = test system: HCT-15 colon
RXF 393 renal = test system: RXF 393 renal
MOLT-4 leukemia = test system: MOLT-4 leukemia
UACC-62 melanoma = test system: UACC-62 melanoma
NCI-H460 lung = test system: NCI-H460 lung
DMS 114 small cell lung = test system: DMS 114 small cell lung
NCI-H23 lung = test system: NCI-H23 lung
UACC-257 melanoma = test system: UACC-257 melanoma
U251 CNS = test system: U251 CNS
KM20L2 colon = test system: KM20L2 colon
SNB-19 CNS = test system: SNB-19 CNS
SNB-75 CNS = test system: SNB-75 CNS
OVCAR-3 ovarian = test system: OVCAR-3 ovarian
SK-MEL-28 melanoma = test system: SK-MEL-28 melanoma
NCI-H226 lung = test system: NCI-H226 lung
EKVX NSCLC = test system: EKVX NSCLC
ACHN renal = test system: ACHN renal
UO-31 renal = test system: UO-31 renal
SK-OV-3 ovarian = test system: SK-OV-3 ovarian
SNB-78 CNS = test system: SNB-78 CNS
OVCAR-4 ovarian = test system: OVCAR-4 ovarian
IGROV1 ovarian = test system: IGROV1 ovarian
MALME-3M melanoma = test system: MALME-3M melanoma
M19-MEL melanoma = test system: M19-MEL melanoma
HL-60(TB) leukemia = test system: HL-60(TB) leukemia
OVCAR-5 ovarian = test system: OVCAR-5 ovarian
CCRF-CEM leukemia = test system: CCRF-CEM leukemia
HT29 colon = test system: HT29 colon
NCI-H522 lung = test system: NCI-H522 lung
DMS 273 small cell lung = test system: DMS 273 small cell lung
SF-268 CNS = test system: SF-268 CNS
786-0 renal = test system: 786-0 renal
M14 melanoma = test system: M14 melanoma
HCC-2998 colon = test system: HCC-2998 colon
A498 renal = test system: A498 renal
HOP-62 NSCLC = test system: HOP-62 NSCLC
SK-MEL-5 melanoma = test system: SK-MEL-5 melanoma
TK-10 renal = test system: TK-10 renal
SR leukemia = test system: SR leukemia
CAKI-1 renal = test system: CAKI-1 renal
LOX IMVI melanoma = test system: LOX IMVI melanoma
SF-295 CNS = test system: SF-295 CNS
SK-MEL-2 melanoma = test system: SK-MEL-2 melanoma
KM12 colon = test system: KM12 colon
HCT-116 colon = test system: HCT-116 colon
SF-539 CNS = test system: SF-539 CNS
SN12C renal = test system: SN12C renal
OVCAR-8 ovarian = test system: OVCAR-8 ovarian
COLO 205 colon = test system: COLO 205 colon
DLD-1 colon = test system: DLD-1 colon
HOP-92 NSCLC = test system: HOP-92 NSCLC
LXFL 529 NSCLC = test system: LXFL 529 NSCLC
HOP-18 NSCLC = test system: HOP-18 NSCLC

CSc1nc(=Nc2ccccc2)sn1-c1ccccc1 showed a TGI (K-562 leukemia) of 30.1 µM, a TGI (A549 NSCLC) of 44 µM and a TGI (RPMI-8226 leukemia) of 40.5 µM. For the same molecule, the TGI (SW-620 colon) was 26.1 µM, the TGI (HCT-15 colon) was 30.4 µM and the TGI (RXF 393 renal) was 31.3 µM. The TGI (MOLT-4 leukemia) was 96 µM, the TGI (UACC-62 melanoma) was 18 µM and the TGI (NCI-H460 lung) was 16.9 µM. For the same molecule, the TGI (DMS 114 small cell lung) was 16.1 µM, the TGI (NCI-H23 lung) was 36 µM and the TGI (UACC-257 melanoma) was 43.9 µM. For the same molecule, the TGI (U251 CNS) was 33.4 µM, the TGI (KM20L2 colon) was 28.4 µM and the TGI (SNB-19 CNS) was 56.7 µM. It also gave a TGI (SNB-75 CNS) of 55.8 µM, a TGI (OVCAR-3 ovarian) of 38.5 µM and a TGI (SK-MEL-28 melanoma) of 30.2 µM. For the same molecule, the TGI (NCI-H226 lung) was 36.2 µM, the TGI (EKVX NSCLC) was greater than 100 µM and the TGI (ACHN renal) was 56 µM. For the same molecule, the TGI (UO-31 renal) was 39.8 µM, the TGI (SK-OV-3 ovarian) was 62.2 µM and the TGI (SNB-78 CNS) was 47 µM. It also gave a TGI (OVCAR-4 ovarian) of 23.6 µM, a TGI (IGROV1 ovarian) of 40 µM and a TGI (MALME-3M melanoma) of 99.1 µM. For the same molecule, the TGI (M19-MEL melanoma) was 23 µM, the TGI (HL-60(TB) leukemia) was 22.6 µM and the TGI (OVCAR-5 ovarian) was 48 µM. It also gave a TGI (CCRF-CEM leukemia) of 40 µM, a TGI (HT29 colon) of 11.8 µM and a TGI (NCI-H522 lung) of 13.2 µM. It also gave a TGI (DMS 273 small cell lung) of 22.8 µM, a TGI (SF-268 CNS) of 54 µM and a TGI (786-0 renal) of 34.4 µM. It also gave a TGI (M14 melanoma) of 22.5 µM, a TGI (HCC-2998 colon) of 38.1 µM and a TGI (A498 renal) of 38.7 µM. For the same molecule, the TGI (HOP-62 NSCLC) was 31.3 µM, the TGI (SK-MEL-5 melanoma) was 23.2 µM and the TGI (TK-10 renal) was 60.5 µM. The TGI (SR leukemia) was 81.1 µM, the TGI (CAKI-1 renal) was 35.1 µM and the TGI (LOX IMVI melanoma) was 32 µM. The TGI (SF-295 CNS) was 49.2 µM, the TGI (SK-MEL-2 melanoma) was 76.9 µM and the TGI (KM12 colon) was 44.2 µM. For the same molecule, the TGI (HCT-116 colon) was 32.5 µM, the TGI (SF-539 CNS) was 36.9 µM and the TGI (SN12C renal) was 39 µM. For the same molecule, the TGI (OVCAR-8 ovarian) was 46.3 µM.
In the case of CC(C1=CC=C2[C@@H]3CCC4CC(N(C)C)CC[C@]4(C)C3CC[C@]12C)N(C)C=O (some centres not stated), the TGI (K-562 leukemia) is reported as greater than 100 µM, the TGI (COLO 205 colon) is reported as greater than 100 µM and the TGI (DLD-1 colon) is reported as greater than 100 µM. For the same molecule, the TGI (A549 NSCLC) was greater than 100 µM, the TGI (RPMI-8226 leukemia) was greater than 100 µM and the TGI (SW-620 colon) was greater than 100 µM. For the same molecule, the TGI (HCT-15 colon) was greater than 100 µM, the TGI (RXF 393 renal) was greater than 100 µM and the TGI (MOLT-4 leukemia) was greater than 100 µM. It also gave a TGI (UACC-62 melanoma) greater than 100 µM, a TGI (DMS 114 small cell lung) greater than 100 µM and a TGI (NCI-H23 lung) greater than 100 µM. The TGI (U251 CNS) was greater than 100 µM, the TGI (SNB-19 CNS) was greater than 100 µM and the TGI (SNB-75 CNS) was greater than 100 µM. The TGI (OVCAR-3 ovarian) was greater than 100 µM, the TGI (SK-MEL-28 melanoma) was greater than 100 µM and the TGI (ACHN renal) was greater than 100 µM. For the same molecule, the TGI (UO-31 renal) was greater than 100 µM, the TGI (SK-OV-3 ovarian) was greater than 100 µM and the TGI (OVCAR-4 ovarian) was greater than 100 µM. For the same molecule, the TGI (HOP-92 NSCLC) was greater than 100 µM, the TGI (IGROV1 ovarian) was greater than 100 µM and the TGI (MALME-3M melanoma) was greater than 100 µM. The TGI (M19-MEL melanoma) was greater than 100 µM, the TGI (LXFL 529 NSCLC) was greater than 100 µM and the TGI (HL-60(TB) leukemia) was greater than 100 µM. For the same molecule, the TGI (OVCAR-5 ovarian) was greater than 100 µM, the TGI (CCRF-CEM leukemia) was greater than 100 µM and the TGI (HT29 colon) was greater than 100 µM. It also gave a TGI (NCI-H522 lung) greater than 100 µM, a TGI (DMS 273 small cell lung) greater than 100 µM and a TGI (SF-268 CNS) greater than 100 µM. The TGI (786-0 renal) was greater than 100 µM, the TGI (M14 melanoma) was greater than 100 µM and the TGI (HCC-2998 colon) was greater than 100 µM. For the same molecule, the TGI (HOP-18 NSCLC) was greater than 100 µM, the TGI (A498 renal) was greater than 100 µM and the TGI (HOP-62 NSCLC) was greater than 100 µM. The TGI (SK-MEL-5 melanoma) was greater than 100 µM, the TGI (TK-10 renal) was greater than 100 µM and the TGI (CAKI-1 renal) was greater than 100 µM. It also gave a TGI (LOX IMVI melanoma) greater than 100 µM, a TGI (SF-295 CNS) greater than 100 µM and a TGI (SK-MEL-2 melanoma) greater than 100 µM. It also gave a TGI (KM12 colon) greater than 100 µM, a TGI (HCT-116 colon) greater than 100 µM and a TGI (SF-539 CNS) greater than 100 µM. For the same molecule, the TGI (SN12C renal) was greater than 100 µM and the TGI (OVCAR-8 ovarian) was greater than 100 µM.
